≈ marks a conversion by molar mass, not a printed value.
Columns and labels:
[1] = system: A549 lung cancer cell line; experiment: MTT cytotoxicity assay on A549 lung cancer cells; format: cell-based, human; conditions: for IC50: Homo sapiens; for SI: selectivity index: L929 versus A549
Description: (§1) The synthesized final compounds (2a–2o) were initially evaluated for their cytotoxic effects to assess their anticancer activity against A549 lung cancer cells. The healthy cell line L929 (mouse fibroblast cell line) was also used to determine the selective antiproliferative properties of the compounds.
(§2) The human lung cancer cell line A549 and mouse fibroblast cell line L929 were used to evaluate the cytotoxicity of the compounds. Cells propagated under the specified conditions were cultured in 96-well plates at 5 × 10^3 cells/well. […] At the end of the incubation period, cell viability was determined by measuring the absorbance of the purple color formed by the breakdown of the MTT dye at 540 nm. Half-maximal inhibitory concentrations (IC50) were determined based on the tested concentrations of the compounds. The tests were triplicated.[38] The MTT assay for cytotoxicity of compounds was determined according to previously published procedures.[39],[40]
(§3) The concentration that inhibits 50% of the cell population was calculated as IC50 using GraphPad Prism 9.0 statistical software program, and standard deviation values were analyzed. Data are expressed as mean ± SD. Comparisons were made using one-way ANOVA for continuous variables with normal distribution, and Tukey’s test was used for post hoc analysis of group differences. p < 0.05 was considered statistically significant.
(§4) The cell viability value of the control group was considered 100%, and all viability values were calculated using the formula below. The experiment was performed in 3 replicates. [drawing 2]

[2] = system: L929 (mouse fibroblast cell line); experiment: MTT cytotoxicity assay on L929 healthy cells; format: cell-based; conditions: mean ± SD
Description: as §1, §2, §3, §4

A549 cells [3] = experiment: Annexin V-FITC/propidium iodide apoptosis detection by flow cytometry; format: cell-based, human; conditions: IC50 dose, 24 h
Description: To determine whether the antiproliferative effects of the compounds on the A549 cell line proceed through the apoptotic or necrotic pathway, the assay was performed with Annexin V-FITC/propidium iodide dyes in a flow cytometry device. […] At least 10,000 cells were analyzed, and quadrant analysis was performed. The results are presented as early apoptotic cells, late apoptotic cells, viable cells, and necrotic cells in Table 3, and as a diagram in Figure 1. In control cells, the number of viable cells was 92.04%, necrotic cells were 1.16%, early apoptotic cells were 3.43%, and late apoptotic cells were 3.28%. […] Among the compounds, 2m was the most apoptosis-inducing compound, with 14.99% early apoptotic and 10.63% late apoptotic cell percentages. […] This compound was followed by compound 2c with a 13.79% early apoptotic cells and 4.03% late apoptotic cells. Among the compounds, compound 2o induced early apoptosis the least (1.87%) and necrosis the most (3.10%). […] Nonapoptotic cell death methods, such as necroptosis and pyroptosis, can be considered for the aforementioned compounds.
The compounds were treated with A549 cells at IC50 doses, and early and late apoptosis, necrosis, and viable cell ratios were determined as percentages. Cells were seeded at 37 °C in humidified air containing 5% CO2 with 10^5 cells/plate in each well. A549 cells were collected, washed twice with ice-cold PBS, and resuspended in 100 μL of binding buffer. Five μL (5 μg/mL) of Annexin V-FITC and PI were added to the cells and incubated for 15 min in the dark at room temperature (20–25 °C). Then, 400 μL of binding buffer was added to the mixture samples and analyzed on a flow cytometer. Quadrant analyses were also presented.[41] Compounds 2a, 2b, 2c, 2j, 2m, and 2o, with a satisfactory cytotoxic profile, were examined via flow cytometry to assess the apoptosis/necrosis cell ratio using previously published procedures.[42]
(§5) The apoptotic results (Annexin V-FITC, Caspase 3, JC-1) were evaluated by flow cytometry using FACS Diva Version 6.1.1. software, and the apoptotic cells were determined as the percentage of cells.

A549 cells [4] = experiment: Mitochondrial membrane potential (JC-1) by flow cytometry; format: cell-based, human; conditions: for % Mitochondrial membrane depolarized cells / % Mitochondrial membrane polarized cells: IC50 dose, JC-1
From the text: The mitochondrial membrane potential provides information about the state of electrons during ATP production through oxidative phosphorylation, which is essential for cellular viability. Mitochondrial dysfunction occurs when this electrical regulation is disturbed and can occur in various diseases and the process of apoptosis.[23] […] Compounds 2m, 2g, and 2c followed this, with depolarization levels exceeding 21%. The mitochondrial dysfunction in compound 2m can be considered a contributing factor to apoptosis.
Cell staining with JC-1 was performed according to the manufacturer’s recommendations for the BD , Pharmingen Flow Cytometry Kit. […] Compounds were applied at IC50 doses of no more than 1 × 10^6/mL per well in 6-well plates. After treatment, each cell suspension was transferred to a 15 mL polystyrene centrifuge tube, the cells were centrifuged at 400g for 5 min, and the supernatant was removed. 0.5 mL of freshly prepared working solution was added to each pellet, and the solution was vortexed. The test cells were soaked in JC-1 working solution at 37 °C for 10–15 min, and the cells were washed twice. After centrifugation at 400g for 5 min, each cell pellet was suspended in 0.5 mL of 1X assay buffer and vortexed. The cells were then analyzed by flow cytometer.
as §5

caspase-3 in A549 cells = experiment: Caspase-3 activation; format: cell-based, human; conditions: 24 h
From the text: Caspases can take part in the cell death mechanism through both intrinsic and extrinsic pathways, with caspase-3 being the first enzyme activated in the apoptosis process.[24] Activation of the caspase-3 enzyme by the compounds, indicated as caspase-3 positive, and inhibition, indicated as caspase-3 negative, are presented in percentage terms in Table 5.
A Spectrofluorometric Caspase-3 assay kit (BD Pharmingen, Franklin Lakes, NJ) was used for determining Caspase-3 activation by measuring the caspase-3 or DEVD-cleaving activity. Initially, A549 cells at a concentration of 1 × 10^6 cells/mL underwent a washing process using phosphate-buffered saline (PBS). Subsequently, they were suspended in a cold solution known as cell lysis buffer and kept on ice for a duration of 30 min. […] In each reaction, a mixture of […] of diluted Ac DEVD-AMC (a synthetic tetrapeptide fluorogenic substrate used to measure caspase-3 activity) and 0.2 mL of 1x HEPES buffer was added to a well. Then, […] of cell lysate was introduced into each well/reaction. The reaction mixtures were incubated at 37 °C for 1 h. The amount of AMC released from Ac-DEVD-AMC was measured by using a microplate reader (PerkinElmer/Victor/X3) with an excitation wavelength of 380 nm and an emission wavelength of 460 nm. Apoptotic cell lysates containing active caspase-3 produced significant emissions compared to controls. In addition, the AMC emission of nonapoptotic control cell lysates was taken as 100%, and the emission of other cell lysates was measured relative to the emission of control cells. All experiments were repeated in duplicate. Active compounds, which are the most cytotoxic compounds, were evaluated for caspase-3 activation using previously published procedures.[40],[44]
as §5

MMP-9 enzyme = molecular target: T1, MMP-9 enzyme (Homo sapiens, UniProt P14780); experiment: MMP-9 enzyme inhibition, colorimetric kit; format: biochemical; conditions: for inhibition at 100 µM: compounds at 100 μM
T1 construct: purchased Enzo Life Sciences Inc. (Farmingdale, NY, USA)
T1 sequence (P14780 107-444 limits assumed): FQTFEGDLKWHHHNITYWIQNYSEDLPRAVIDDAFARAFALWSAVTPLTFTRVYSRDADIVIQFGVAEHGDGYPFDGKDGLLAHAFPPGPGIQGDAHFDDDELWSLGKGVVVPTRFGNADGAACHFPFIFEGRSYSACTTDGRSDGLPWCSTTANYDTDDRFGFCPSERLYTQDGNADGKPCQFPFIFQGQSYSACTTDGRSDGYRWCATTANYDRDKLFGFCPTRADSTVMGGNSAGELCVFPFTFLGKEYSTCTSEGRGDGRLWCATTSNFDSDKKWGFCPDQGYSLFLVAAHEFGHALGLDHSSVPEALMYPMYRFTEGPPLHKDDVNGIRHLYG
Description: Compounds (2a–2o) were tested to determine their MMP-9 enzyme inhibition potential. The compounds were tested at a concentration of 100 μM, and the standard molecule NNGH at a concentration of 1.3 μM.
MMP-9 inhibition was assessed using a colorimetric kit from Enzo Life Sciences Inc. (Farmingdale, NY, USA), following procedures similar to those described in previous studies.[25],[26] A thiopeptide was used as a chromogenic substrate (Ac-PLG-[2-mercapto-4-methyl-pentanoyl]-LG-OC2H5). 2-Nitro-5-thiobenzoic acid, formed by the reaction of the sulfhydryl group produced as a result of hydrolysis of the thioester by the MMP-9 enzyme and then reaction with DTNB [5,5′-dithiobis(2-nitrobenzoic acid), Ellman’s reagent], gives absorbance at 412 nm in a microplate reader (BioTek, PowerWave, Gen5 software, Winooski, VT, USA). Based on these absorptions, MMP-9 inhibition concentrations were determined. The assays were performed in triplicate. NNGH (N-isobutyl-N-(4-methoxyphenylsulfonyl)glycyl hydroxamic acid) was used as a control inhibitor. Data were shown as mean ± SD. The inhibitor % remaining activity of MMPs was calculated using the following equation:
Inhibitor% activity remaining = (V inhibitor/V control) × 100.
The inhibition (percent) of MMPs was calculated using the following equation: [drawing 1]

Structure (SMILES) | IC50 ([1]; A549 cells, MTT, mean ± SD) | SI: selectivity index [1] | IC50 [2] | Q1-UL necrotic cells (A549 cells [3]) | Q1-UR late apoptotic cells (A549 cells [3]) | % Mitochondrial membrane depolarized cells (A549 cells [4]) | % Mitochondrial membrane polarized cells (A549 cells [4]) | % Caspase-3 negative cells (caspase-3 in A549 cells) | % Caspase-3 positive cells (caspase-3 in A549 cells) | other results
Oc1ccc(-c2csc(NN=Cc3ccccn3)n2)cc1O [Compound 2d, 4-(2-(2-(Pyridin-2-ylmethylene)hydrazinyl)thiazol-4-yl)benzene-1,2-diol] | 4.7 ± 0.6 mg/L (≈ 15 µM) | 1.96 | 9.2 ± 0.36 mg/L (≈ 29.5 µM) |  |  |  |  |  |  | 
Clc1ccc(-c2csc(NN=Cc3ccncc3)n2)cc1Cl [Compound 2o, 4-(3,4-Dichlorophenyl)-2-(2-(pyridin-4-ylmethylene)hydrazinyl)thiazole] | 5.04 ± 0.31 mg/L (≈ 14.4 µM) |  | 51.9 ± 0.58 mg/L (≈ 149 µM) | 3.10% | 7.92% | 12.85% | 87.73% | 25.00% | 0.00% | Q1-LL viable cells (A549 cells [3]): 87.11%; Q1-LR early apoptotic cells (A549 cells [3]): 1.87%
Oc1ccc(-c2csc(NN=Cc3ccncc3)n2)cc1O [Compound 2n, 4-(2-(2-(Pyridin-4-ylmethylene)hydrazinyl)thiazol-4-yl)benzene-1,2-diol] | 4.23 ± 0.54 mg/L (≈ 13.5 µM) | 1.06 | 4.48 ± 0.68 mg/L (≈ 14.3 µM) |  |  |  |  |  |  | inhibition at 100 µM (MMP-9 enzyme; mean ± SD): 19 ± 3.63%
CS(=O)(=O)c1ccc(-c2csc(NN=Cc3ccccn3)n2)cc1 [Compound 2b, 4-(4-(Methylsulfonyl)phenyl)-2-(2-(pyridin-2-ylmethylene)hydrazinyl)thiazole] | 9.93 ± 0.37 mg/L (≈ 27.7 µM) |  | 31.2 ± 0.56 mg/L (≈ 87.2 µM) | 0.33% | 2.28% | 47.96% | 54.51% | 84.70% | 7.73% | Q1-LL viable cells (A549 cells [3]): 90.44%; Q1-LR early apoptotic cells (A549 cells [3]): 6.95%; apoptosis induction, result in words (A549 cells [3]): did not significantly induce apoptosis; mitochondrial membrane depolarization relative to cisplatin (A549 cells [4]; versus cisplatin): approximately 1.5 times
COc1ccc(OC)c(-c2csc(NN=Cc3ccncc3)n2)c1 [Compound 2k, 4-(2,5-Dimethoxyphenyl)-2-(2-(pyridin-4-ylmethylene)hydrazinyl)thiazole] | 6.07 ± 0.31 mg/L (≈ 17.8 µM) | 1.42 | 8.59 ± 0.32 mg/L (≈ 25.2 µM) |  |  |  |  |  |  | MMP-9 inhibition, result in words (MMP-9 enzyme; compared with 2f): less active than 2f (2,5-dimethoxypehnyl) or inactive
COc1ccc(OC)c(-c2csc(NN=Cc3cccnc3)n2)c1 [Compound 2f, 4-(2,5-Dimethoxyphenyl)-2-(2-(pyridin-3-ylmethylene)hydrazinyl)thiazole] | 4.04 ± 0.29 mg/L (≈ 11.9 µM) |  | 14 ± 0.57 mg/L (≈ 41 µM) |  |  |  |  |  |  | inhibition at 100 µM (MMP-9 enzyme; mean ± SD): 70.8 ± 2.2%
C(=NNc1nc(-c2ccc(-c3ccccc3)cc2)cs1)c1cccnc1 [Compound 2h, 4-([1,1’-Biphenyl]-4-yl)-2-(2-(pyridin-3-ylmethylene)hydrazinyl)thiazole] | 9.93 ± 0.42 mg/L (≈ 27.9 µM) | 1.53 | 15.2 ± 0.53 mg/L (≈ 42.7 µM) |  |  |  |  |  |  | 
COc1ccc(S(=O)(=O)N(CC(=O)NO)CC(C)C)cc1 [NNGH, N-isobutyl-N-(4-methoxyphenylsulfonyl)glycyl hydroxamic acid, reference compound] |  |  |  |  |  |  |  |  |  | MMP-9 inhibition % (MMP-9 enzyme; standard at 1.3 μM, mean ± SD): 93.56 ± 1.78%
CS(=O)(=O)c1ccc(-c2csc(NN=Cc3ccncc3)n2)cc1 [Compound 2l, 4-(4-(Methylsulfonyl)phenyl)-2-(2-(pyridin-4-ylmethylene)hydrazinyl)thiazole] | 4.7 ± 0.3 mg/L (≈ 13.1 µM) | 1.43 | 6.74 ± 0.41 mg/L (≈ 18.8 µM) |  |  |  |  |  |  | 
Oc1ccc(-c2csc(NN=Cc3cccnc3)n2)cc1O [Compound 2i, 4-(2-(2-(Pyridin-3-ylmethylene)hydrazinyl)thiazol-4-yl)benzene-1,2-diol] | 7.2 ± 0.95 mg/L (≈ 23.1 µM) |  | > 250 mg/L |  |  |  |  |  |  | inhibition at 100 µM (MMP-9 enzyme; mean ± SD): 40.6 ± 3.01%
Clc1ccc(-c2csc(NN=Cc3cccnc3)n2)cc1Cl [Compound 2j, 4-(3,4-Dichlorophenyl)-2-(2-(pyridin-3-ylmethylene)hydrazinyl)thiazole] | 6.58 ± 0.35 mg/L (≈ 18.8 µM) | 1.48 | 9.76 ± 0.45 mg/L (≈ 27.9 µM) | 1.68% | 3.31% | 15.40% | 84.75% | 97.47% | 0.96% | Q1-LL viable cells (A549 cells [3]): 91.05%; Q1-LR early apoptotic cells (A549 cells [3]): 3.96%; apoptosis induction, result in words (A549 cells [3]): did not significantly induce apoptosis
N.N.[Cl][Pt][Cl] [Cisplatin, reference compound] |  |  |  | 6.56% | 31.29% | 36.27% | 62.15% | 75.56% | 11.65% | IC50 A549 ([1]; A549 cells, MTT, mean ± SD): 12.65 ± 0.38 mg/L; total apoptosis (early + late apoptotic cells) (A549 cells [3]): 62.37%

From paper PMC12059926, “Development and Biological Assessment of Thiazole-Based Pyridines for Targeted Therapy in Lung Cancer” (ACS Omega, 2025)
